Literature values, collected in US20050244821A1, “Method of identification and quantification of biological molecules and apparatus therefore” (priority 2000, published 2005).

Target: D2.3 antibody
Conditions: hapten and antibody free in solution; competitive ELISA, further by a fluorescence assay; read-out: affinity constant

Which Kd does the source give for “p-nitrobenzyl phosphonate N-glycylglutatarate [hapten 23.7]” here?
Its Kd is 4 nM.
